In the supplement of paper PMC11061612:

Legend:
[1] = tested on: NCI-H720 (Other Solid Carcinomas); assay: Bliss excess, mean over the matrix (fraction); higher = more synergy
In short: (§1)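 Bliss excess equals the observed combination effect minus the expected value EA + EB − EA·EB, where EA and EB are the effects of each agent alone. Combination Emax is the second-highest inhibition within the matrix. Inhibition was scaled from CellTiter-Glo 2.0 luminescence, with 0 set by vehicle wells and 1 by blank wells, after 72 hours of two-drug dosing of cells plated in 1536-well plates.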

[2] = tested on: Detroit562 (Head and Neck Carcinoma); assay: combination Emax (second highest fraction inhibited in the dose matrix, 72 h); higher = more inhibition; extreme values may be limits of the assay
In short: as §1

[3] = tested on: NCI-H2722 (Mesothelioma); assay: as above
In short: as §1

[4] = tested on: OVCAR-5 (Ovarian Carcinoma); assay: as above
In short: as §1

[5] = tested on: SAS (Oral Cavity Carcinoma); assay: as above
In short: as §1

[6] = tested on: NCI-H209 (Small Cell Lung Carcinoma); assay: as above
In short: as §1

[7] = tested on: ESS-1 (Other Solid Carcinomas); assay: as above
In short: as §1

[8] = tested on: A673 (Ewing's Sarcoma); assay: as above
In short: as §1

[9] = tested on: NCI-H720 (Other Solid Carcinomas); assay: as above
In short: as §1

[10] = tested on: Hs-746T (Gastric Carcinoma); assay: as above
In short: as §1

[11] = tested on: NCI-H524 (Small Cell Lung Carcinoma); assay: as above
In short: as §1

[12] = tested on: TGBC1TKB (Biliary Tract Carcinoma); assay: as above
In short: as §1

Row | SMILES | Bliss excess [1] | combination Emax [2] | combination Emax [3] | combination Emax [4] | combination Emax [5] | combination Emax [6] | combination Emax [7] | combination Emax [8] | combination Emax [9] | combination Emax [10] | combination Emax [11] | combination Emax [12]
1 | COc1cccc(OCCCN)c1-c1cc(Nc2cnc(C#N)cn2)n[nH]1 [Prexasertib] + C=CCn1c(=O)c2cnc(Nc3ccc(N4CCN(C)CC4)cc3)nc2n1-c1cccc(C(C)(C)O)n1 [AZD1775] (first compound max 1 µM, partner max 1 µM) | 0.107 | 0.949 | 0.308 | 0.838 | 0.969 | 0.988 | 1 | 0.946 | 0.692 | 0.78 | 1 | 0.446
2 | CCc1c2c(nc3ccc(O)cc13)-c1cc3c(c(=O)n1C2)COC(=O)[C@]3(O)CC [SN-38] + O=C(c1cc(Cc2n[nH]c(=O)c3ccccc23)ccc1F)N1CCN(C(=O)C2CC2)CC1 [Olaparib] (first compound max 0.3 µM, 7x7, partner max 10 µM) | -0.0027 | – | 0.38 | 0.637 | 1 | – | 1 | 1 | 0.333 | – | 0.783 | 0.493
3 | COc1cccc(OCCCN)c1-c1cc(Nc2cnc(C#N)cn2)n[nH]1 [Prexasertib] + Cc1cc2ncnn2cc1Nc1ncc2c(n1)n(C1CCOCC1)c(=O)n2C [AZD7648] (first compound max 1 µM, 7x7, partner max 10 µM) | 0.0515 | 0.922 | 0.216 | 0.829 | 0.926 | 0.974 | 1 | 0.875 | 0.746 | 0.78 | 0.988 | 0.483
4 | CN(C)CCCOc1ccc(-c2ccc3ncc4c(c3c2)n(C2CCOCC2)c(=O)n4C)cn1 [AZD0156] + CCN(CCO)CCCOc1ccc2c(Nc3cc(CC(=O)Nc4cccc(F)c4)[nH]n3)ncnc2c1 [AZD2811] (first compound max 1 µM, 7x7, partner max 1 µM) | 0.0368 | 0.75 | 0.146 | 0.137 | 0.0904 | 0.552 | 0.606 | 0.75 | 0.742 | 0.155 | 0.973 | 0.0674
5 | COc1cccc(OCCCN)c1-c1cc(Nc2cnc(C#N)cn2)n[nH]1 [Prexasertib] + O=C(c1cc(Cc2n[nH]c(=O)c3ccccc23)ccc1F)N1CCN(C(=O)C2CC2)CC1 [Olaparib] (first compound max 1 µM, 7x7, partner max 10 µM) | 0.0208 | 0.922 | 0.234 | 0.693 | 0.93 | 0.965 | 1 | 0.923 | 0.64 | 0.806 | 0.929 | 0.446
6 | C=CCn1c(=O)c2cnc(Nc3ccc(N4CCN(C)CC4)cc3)nc2n1-c1cccc(C(C)(C)O)n1 [AZD1775] + O=C(c1cc(Cc2n[nH]c(=O)c3ccccc23)ccc1F)N1CCN(C(=O)C2CC2)CC1 [Olaparib] (first compound max 1 µM, partner max 10 µM) | -0.035 | 0.669 | 0.346 | 0.447 | 0.577 | 0.922 | 1 | 0.822 | 0.671 | 0.591 | 0.789 | 0.258
7 | C=CCn1c(=O)c2cnc(Nc3ccc(N4CCN(C)CC4)cc3)nc2n1-c1cccc(C(C)(C)O)n1 [AZD1775] + C[C@@H]1COCCN1C2=NC(=NC(=C2)C3(CC3)[S@](=N)(=O)C)C4=C5C=CNC5=NC=C4 [AZD6738] (first compound max 1 µM, partner max 10 µM) | 0.0344 | 0.902 | 0.403 | 0.782 | 0.908 | 0.944 | 1 | 0.907 | 0.838 | 0.691 | 0.97 | 0.502
8 | C[C@@H]1COCCN1c1cc(C2([S@](C)(=N)=O)CC2)nc(-c2ccnc3[nH]ccc23)n1 [AZD6738] + O=C(c1cc(Cc2n[nH]c(=O)c3ccccc23)ccc1F)N1CCN(C(=O)C2CC2)CC1 [Olaparib] (first compound max 10 µM, 7x7, partner max 10 µM) | -0.0398 | 0.862 | 0.292 | 0.515 | 0.839 | 0.94 | 0.979 | 0.89 | 0.687 | 0.582 | 0.746 | 0.397
9 | CCN(CCO)CCCOc1ccc2c(Nc3cc(CC(=O)Nc4cccc(F)c4)[nH]n3)ncnc2c1 [AZD2811] + C[C@@H]1COCCN1C2=NC(=NC(=C2)C3(CC3)[S@](=N)(=O)C)C4=C5C=CNC5=NC=C4 [AZD6738] (first compound max 1 µM, 7x7, partner max 10 µM) | 0.0033 | 0.913 | 0.326 | 0.698 | 0.83 | 0.913 | 0.97 | 0.852 | 0.8 | 0.582 | 1 | 0.383
10 | COc1cccc(OCCCN)c1-c1cc(Nc2cnc(C#N)cn2)n[nH]1 [Prexasertib] + CN(C)CCCOc1ccc(-c2ccc3ncc4c(c3c2)n(C2CCOCC2)c(=O)n4C)cn1 [AZD0156] (first compound max 1 µM, 7x7, partner max 1 µM) | 0.0149 | 0.922 | 0.193 | 0.838 | 0.926 | 0.94 | 1 | 0.905 | 0.562 | 0.78 | 0.97 | 0.361
11 | CN(C)CCCOc1ccc(-c2ccc3ncc4c(c3c2)n(C2CCOCC2)c(=O)n4C)cn1 [AZD0156] + C[C@@H]1COCCN1C2=NC(=NC(=C2)C3(CC3)[S@](=N)(=O)C)C4=C5C=CNC5=NC=C4 [AZD6738] (first compound max 1 µM, 7x7, partner max 10 µM) | -0.0059 | 0.88 | 0.248 | 0.756 | 0.855 | 0.854 | 0.989 | 0.907 | 0.716 | 0.636 | 0.858 | 0.397
12 | COc1cccc(OCCCN)c1-c1cc(Nc2cnc(C#N)cn2)n[nH]1 [Prexasertib] + C[C@@H]1COCCN1C2=NC(=NC(=C2)C3(CC3)[S@](=N)(=O)C)C4=C5C=CNC5=NC=C4 [AZD6738] (first compound max 1 µM, 7x7, partner max 10 µM) | -0.0325 | 0.918 | 0.304 | 0.817 | 0.943 | 0.959 | 1 | 0.883 | 0.697 | 0.754 | 0.998 | 0.552
13 | COc1cccc(OCCCN)c1-c1cc(Nc2cnc(C#N)cn2)n[nH]1 [Prexasertib] + CCc1c2c(nc3ccc(O)cc13)-c1cc3c(c(=O)n1C2)COC(=O)[C@]3(O)CC [SN-38] (first compound max 1 µM, 7x7, partner max 0.3 µM) | 0.197 | 1 | 0.471 | 0.89 | 0.999 | 1 | 1 | 0.998 | 0.886 | 0.813 | 1 | 0.632
14 | COc1cccc2c1C(=O)c1c(O)c3c(c(O)c1C2=O)C[C@@](O)(C(=O)CO)C[C@@H]3O[C@H]1C[C@H](N)[C@H](O)[C@H](C)O1 [Doxorubicin] + Cc1cc2ncnn2cc1Nc1ncc2c(n1)n(C1CCOCC1)c(=O)n2C [AZD7648] (first compound max 1 µM, 7x7, partner max 10 µM) | 0.0281 | 0.681 | 0.823 | 0.587 | 0.921 | 0.993 | 1 | 0.888 | 0.478 | 0.737 | 0.693 | 0.366
15 | CCN(CCO)CCCOc1ccc2c(Nc3cc(CC(=O)Nc4cccc(F)c4)[nH]n3)ncnc2c1 [AZD2811] + O=C(c1cc(Cc2n[nH]c(=O)c3ccccc23)ccc1F)N1CCN(C(=O)C2CC2)CC1 [Olaparib] (first compound max 1 µM, 7x7, partner max 10 µM) | -0.0312 | 0.702 | 0.204 | 0.184 | 0.197 | 0.971 | 0.63 | 0.841 | 0.561 | 0.232 | 0.945 | 0.0912
16 | CCN(CCO)CCCOc1ccc2c(Nc3cc(CC(=O)Nc4cccc(F)c4)[nH]n3)ncnc2c1 [AZD2811] + C=CCn1c(=O)c2cnc(Nc3ccc(N4CCN(C)CC4)cc3)nc2n1-c1cccc(C(C)(C)O)n1 [AZD1775] (first compound max 1 µM, partner max 1 µM) | 0.0326 | 0.828 | 0.278 | 0.273 | 0.43 | 0.879 | 1 | 0.708 | 0.679 | 0.436 | 0.976 | 0.234
17 | CN(C)CCCOc1ccc(-c2ccc3ncc4c(c3c2)n(C2CCOCC2)c(=O)n4C)cn1 [AZD0156] + C=CCn1c(=O)c2cnc(Nc3ccc(N4CCN(C)CC4)cc3)nc2n1-c1cccc(C(C)(C)O)n1 [AZD1775] (first compound max 1 µM, partner max 1 µM) | 0.0013 | 0.606 | 0.268 | 0.347 | 0.548 | 0.84 | 0.973 | 0.564 | 0.722 | 0.491 | 0.792 | 0.134
18 | Cc1c2c(nn1C)CSCc1cc(n(C)n1)CSc1cc(c3ccccc3c1)OCCCc1c(C(=O)O)n(C)c3c-2c(Cl)ccc13 [AZD5991] + C=CCn1c(=O)c2cnc(Nc3ccc(N4CCN(C)CC4)cc3)nc2n1-c1cccc(C(C)(C)O)n1 [AZD1775] (first compound max 1 µM, partner max 1 µM) | – | 0.749 | 0.397 | 0.343 | 0.625 | 0.95 | 0.988 | 0.614 | – | 0.605 | 0.816 | 0.303
19 | CC(=O)Nc1cccc(-n2c(=O)n(C3CC3)c(=O)c3c(Nc4ccc(I)cc4F)n(C)c(=O)c(C)c32)c1 [Trametinib] + Cc1nc(-c2cn3c(n2)-c2ccc(-c4cnn(C(C)(C)C(N)=O)c4)cc2OCC3)n(C(C)C)n1 [Taselisib] (first compound max 1 µM, 7x7, partner max 10 µM) | – | 0.954 | 0.666 | 0.905 | 0.882 | 0.218 | 0.88 | 0.722 | – | 0.606 | 0.829 | 0.933
